How the values were obtained:
Zea mays (maize) = assay: Crop plant tolerance, pre-emergence; type: in vivo; conditions: 20 g of active substance per hectare
Text: (§1) 1. Weed Plant Herbicidal Activity and Crop Plant Tolerance, Pre-emergence
(§2) Seeds of monocotyledonous and dicotyledonous weed plants and also of crop plants are placed in sandy loam soil in cardboard pots and are covered with soil. The compounds of the invention, formulated as wettable powders or emulsifiable concentrates, are then applied as an aqueous suspension or emulsion, respectively, and at different dosages to the surface of the covering soil at an application rate of 600 to 800 l of water per ha (converted). Following treatment, the pots are placed in a greenhouse and kept under good growth conditions for the weeds. Visual scoring of the plant damage or emergence damage is made after the test plants have emerged, after an experimental period of 3 to 4 weeks, in comparison with untreated controls. In this case, for example, the compounds of the invention from examples nos. 1.7 and 4.1 at a dosage of 320 g of active substance per hectare display a 100% activity against Digitaria sanguinalis, Setaria viridis and Amaranthus retroflexus. At the same dosage these compounds of the invention cause no damage to the crop plants Oryza sativa (rice) and Glycine max (soybean). The compound of the invention from example no. […] At the same dosage this compound of the invention causes no damage to the crop plants Oryza sativa (rice), Zea mays (maize) and Glycine max (soybean). At a dosage of 320 g of active substance per hectare, the compound of the invention from example no.

Oryza sativa (rice) = assay: Crop plant tolerance, pre-emergence; type: in vivo
Text: as §1, §2

Glycine max (soybean) = assay: Crop plant tolerance, pre-emergence; type: in vivo
Text: as §1, §2

Veronica persica = assay: Weed plant herbicidal activity, pre-emergence; type: in vivo; conditions: 20 g of active substance per hectare, visual scoring after 3 to 4 weeks
Text: as §1, §2

Setaria viridis = assay: Weed plant herbicidal activity, pre-emergence; type: in vivo; conditions: visual scoring after 3 to 4 weeks
Text: as §1, §2

Digitaria sanguinalis = assay: Weed plant herbicidal activity, pre-emergence; type: in vivo; conditions: 320 g of active substance per hectare, visual scoring after 3 to 4 weeks
Text: as §1, §2

Alopecurus myosuroides = assay: Weed plant herbicidal activity, pre-emergence; type: in vivo; conditions: 20 g of active substance per hectare, visual scoring after 3 to 4 weeks
Text: as §1, §2

Amaranthus retroflexus = assay: Weed plant herbicidal activity, pre-emergence; type: in vivo; conditions: visual scoring after 3 to 4 weeks
Text: as §1, §2

[1] = 20 g of active substance per hectare
[2] = 320 g of active substance per hectare

For `Cc1cnc(-n2cc(C(F)(F)F)cn2)nc1Oc1cccc(C(F)(F)F)c1` [Example 1.7, 5-methyl-4-(3-trifluoromethylphenoxy)-2-(4-trifluoromethyl-1H-1-pyrazolyl)pyrimidine], the melting point was 103 to 105 °C, the “damage to the crop plant Zea mays (maize)” value (Zea mays (maize)) was “no damage” and the “damage to the crop plant Oryza sativa (rice)” value (Oryza sativa (rice); [1]) was “no damage”. For the same molecule, the “damage to the crop plant Oryza sativa (rice)” value (Oryza sativa (rice); [2]) was “no damage”, the “damage to the crop plant Glycine max (soybean)” value (Glycine max (soybean); [1]) was “no damage” and the “damage to the crop plant Glycine max (soybean)” value (Glycine max (soybean); [2]) was “no damage”. For the same molecule, the “activity against Veronica persica” value (Veronica persica) was “at least 90%”, the “activity against Setaria viridis” value (Setaria viridis; [1]) was “at least 90%” and the “activity against Setaria viridis” value (Setaria viridis; [2]) was 100%. The “activity against Digitaria sanguinalis” value (Digitaria sanguinalis) was 100%, the “activity against Alopecurus myosuroides” value (Alopecurus myosuroides) was “at least 90%” and the “activity against Amaranthus retroflexus” value (Amaranthus retroflexus; [1]) was “at least 90%”. For the same molecule, the “activity against Amaranthus retroflexus” value (Amaranthus retroflexus; [2]) was 100%.

From patent US7282469B2, “4-trifluoromethylpyrazolyl-substituted pyridines and pyrimidines” (Bayer CropScience GmbH, priority 2002, dated 2007)
